{
  "source": "paper PMC11617653",
  "about": "“Macrocyclic Inhibitors Targeting the Prime Site of the Fibrinolytic Serine Protease Plasmin” (Chemmedchem, 2024)",
  "format_in_all_cases": "biochemical",
  "key": {"[1]": {"molecular_target": "T1, human plasmin (Homo sapiens, UniProt P00747)", "T1 construct": "purchased Calbiochem", "T1 sequence (P00747 581-810)": "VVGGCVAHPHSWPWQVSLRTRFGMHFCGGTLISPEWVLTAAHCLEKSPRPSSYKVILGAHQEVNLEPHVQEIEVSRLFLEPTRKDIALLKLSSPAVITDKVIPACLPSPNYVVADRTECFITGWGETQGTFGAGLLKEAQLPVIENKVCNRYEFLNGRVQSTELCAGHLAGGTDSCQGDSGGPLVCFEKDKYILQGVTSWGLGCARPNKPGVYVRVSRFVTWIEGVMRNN", "T1 sequence (P00747 97-580)": "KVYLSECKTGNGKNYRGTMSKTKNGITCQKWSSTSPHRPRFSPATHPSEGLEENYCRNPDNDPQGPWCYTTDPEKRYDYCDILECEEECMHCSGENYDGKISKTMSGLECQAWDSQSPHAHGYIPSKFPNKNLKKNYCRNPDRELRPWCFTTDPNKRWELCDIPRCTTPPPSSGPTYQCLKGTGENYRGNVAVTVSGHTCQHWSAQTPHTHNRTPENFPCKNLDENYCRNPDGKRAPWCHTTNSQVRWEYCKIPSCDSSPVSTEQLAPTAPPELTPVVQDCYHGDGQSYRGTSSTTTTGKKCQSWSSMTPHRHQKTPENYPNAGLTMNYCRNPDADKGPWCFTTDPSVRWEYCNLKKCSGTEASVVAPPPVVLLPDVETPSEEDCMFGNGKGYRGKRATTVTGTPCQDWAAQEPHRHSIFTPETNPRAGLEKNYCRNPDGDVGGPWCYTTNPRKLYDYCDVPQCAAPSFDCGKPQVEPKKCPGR", "assay": "Inhibition of human plasmin, fluorogenic substrate Mes-DArg-Phe-Arg-AMC", "conditions": "for fold weaker plasmin inhibition than inhibitor 28: compared with cyclic inhibitor 28", "procedure": "All inhibitors prepared in this study act as reversible competitive plasmin inhibitors, their K i values were calculated by fitting the steady‐state velocities as function of the inhibitor concentrations using equation 1. 4‐aminophenylalanine (Phe(4‐NH2)) was incorporated as P1’ residue in the first inhibitor series, which enabled a macrocyclization via amide bond formation from its side chain amino group using various linker segments and P2’ residues (Table 1). […] The improved potency of SFTI‐1 analogues with basic P2’ residues[9] stimulated the incorporation of Arg in that position leading to inhibitor 4 with a slightly stronger inhibitory potency. A significant improvement could be achieved when using 3‐ or 4‐aminophenylacetic acid as P2’ group in combination with elongated linker residues (5‐6). […] However, inhibitor 9 is a twofold stronger plasmin inhibitor compared to its analogue 8.\nFor these inhibitors the steady‐state velocities were calculated by fitting the progress curves to equation 2 providing an additional apparent first‐order rate constant k obs for each curve. The steady‐state rates were used for K i determination with equation 1 and the k obs values for the calculation of the association rate constants k on according to equation 3. The dissociation rate constant k off was calculated from the known K i and k on values using equation 4. The enzyme kinetic evaluation of slow‐binding inhibitors of plasmin has already been described in detail in our two previous publications.[11, 12]\nAll measurements were conducted as triplicates in black 96‐well FluoroNunc MaxiSorp plates (Nunc, Langenselbold, Germany) and suitable fluorogenic substrates at room temperature. […] Each well contained a total volume of 180 μL consisting of 100 μL of inhibitor dissolved in buffer, 40 μL of the substrate Mes‐DArg‐Phe‐Arg‐AMC[11] (100 μM in assay, KM=16.1 μM) dissolved in water and 40 μL of plasmin solution (0.27 nM in assay). The following equations were used for the enzyme kinetic analysis as described in the results section and in our previous publications.[11, 12] (1) [drawing 71] (2) [drawing 72] (3) [drawing 73] (4) [drawing 74]"}, "[2]": {"molecular_target": "plasma kallikrein (PK) (Homo sapiens, UniProt P03952)", "sequence (P03952 391-638)": "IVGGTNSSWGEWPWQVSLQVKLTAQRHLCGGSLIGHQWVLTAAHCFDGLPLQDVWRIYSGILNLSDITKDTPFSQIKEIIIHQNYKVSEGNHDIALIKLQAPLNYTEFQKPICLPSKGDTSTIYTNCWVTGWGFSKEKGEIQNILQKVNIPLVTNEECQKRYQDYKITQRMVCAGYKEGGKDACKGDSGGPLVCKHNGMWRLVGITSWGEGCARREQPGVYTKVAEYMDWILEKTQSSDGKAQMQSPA", "sequence (P03952 20-390)": "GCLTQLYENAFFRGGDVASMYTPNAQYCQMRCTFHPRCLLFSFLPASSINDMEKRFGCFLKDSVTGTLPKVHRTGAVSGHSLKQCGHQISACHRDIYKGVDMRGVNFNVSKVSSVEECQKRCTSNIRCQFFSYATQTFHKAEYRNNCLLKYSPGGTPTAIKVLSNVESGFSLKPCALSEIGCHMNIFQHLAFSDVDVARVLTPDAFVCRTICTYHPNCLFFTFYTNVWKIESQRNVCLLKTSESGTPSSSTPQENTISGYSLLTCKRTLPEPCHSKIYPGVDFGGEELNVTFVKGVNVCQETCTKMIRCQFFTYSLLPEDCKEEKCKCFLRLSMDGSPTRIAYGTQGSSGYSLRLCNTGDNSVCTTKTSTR", "assay": "Selectivity: inhibition of plasma kallikrein", "conditions": "for PK selectivity index K i(protease)/Ki(plasmin): in brackets; for Ki: read-out: PK K i", "procedure": "(§1) For these three proteases a selectivity index (SI=K i(protease)/K i(plasmin)) was calculated, which is provided in brackets after the inhibition constants (Table 3).\n(§2) The measurements with the related trypsin‐like serine proteases trypsin, plasma kallikrein, factor XIa, thrombin, activated protein Ca and factor Xa used in selectivity studies were performed as described previously.[11, 12]"}, "[3]": {"molecular_target": "factor XIa (fXIa) (Homo sapiens, UniProt P03951)", "sequence (P03951 19-387)": "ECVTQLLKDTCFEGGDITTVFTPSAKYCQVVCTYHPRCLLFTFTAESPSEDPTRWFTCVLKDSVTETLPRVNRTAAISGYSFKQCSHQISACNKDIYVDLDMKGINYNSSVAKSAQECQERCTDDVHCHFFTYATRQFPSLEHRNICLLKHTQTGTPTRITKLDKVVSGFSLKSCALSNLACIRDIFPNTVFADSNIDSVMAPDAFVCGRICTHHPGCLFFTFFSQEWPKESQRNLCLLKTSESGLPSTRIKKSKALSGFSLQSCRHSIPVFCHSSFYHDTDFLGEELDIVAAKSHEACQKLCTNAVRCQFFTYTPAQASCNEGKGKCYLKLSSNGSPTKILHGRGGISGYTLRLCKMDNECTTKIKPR", "sequence (P03951 388-625)": "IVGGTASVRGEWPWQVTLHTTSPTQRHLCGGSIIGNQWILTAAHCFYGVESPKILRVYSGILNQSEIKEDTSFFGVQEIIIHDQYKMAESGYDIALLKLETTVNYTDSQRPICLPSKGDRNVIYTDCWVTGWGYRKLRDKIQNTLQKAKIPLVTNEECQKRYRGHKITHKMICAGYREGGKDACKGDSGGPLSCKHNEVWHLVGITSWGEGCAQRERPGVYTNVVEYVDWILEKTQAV", "assay": "Selectivity: inhibition of factor XIa", "conditions": "for fXIa selectivity index K i(protease)/Ki(plasmin): in brackets; for Ki: read-out: fXIa K i", "procedure": "as §1, §2"}, "[4]": {"molecular_target": "thrombin (Homo sapiens, UniProt P00734)", "assay": "Selectivity: inhibition of thrombin", "conditions": "deduced from pre-assays with only three inhibitor concentrations; read-out: Thrombin K i", "procedure": "as §1, §2"}, "[5]": {"molecular_target": "activated protein C (aPC) (Homo sapiens, UniProt P04070)", "sequence (P04070 43-197)": "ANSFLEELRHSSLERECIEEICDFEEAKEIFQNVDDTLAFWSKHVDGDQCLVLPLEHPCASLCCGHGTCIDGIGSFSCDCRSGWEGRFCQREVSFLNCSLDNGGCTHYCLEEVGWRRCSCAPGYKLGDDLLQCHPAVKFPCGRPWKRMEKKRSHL", "sequence (P04070 212-461)": "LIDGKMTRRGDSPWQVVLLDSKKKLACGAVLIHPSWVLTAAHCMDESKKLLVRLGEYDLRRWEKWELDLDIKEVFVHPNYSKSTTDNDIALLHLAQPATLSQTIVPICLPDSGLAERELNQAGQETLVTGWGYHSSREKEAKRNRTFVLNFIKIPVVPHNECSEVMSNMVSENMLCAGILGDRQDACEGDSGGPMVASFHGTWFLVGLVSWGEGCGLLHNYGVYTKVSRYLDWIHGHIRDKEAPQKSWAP", "assay": "Selectivity: inhibition of activated protein C", "conditions": "deduced from pre-assays with only three inhibitor concentrations; read-out: aPC K i", "procedure": "as §1, §2"}, "[6]": {"molecular_target": "factor Xa (fXa) (Homo sapiens, UniProt P00742)", "sequence (P00742 41-179)": "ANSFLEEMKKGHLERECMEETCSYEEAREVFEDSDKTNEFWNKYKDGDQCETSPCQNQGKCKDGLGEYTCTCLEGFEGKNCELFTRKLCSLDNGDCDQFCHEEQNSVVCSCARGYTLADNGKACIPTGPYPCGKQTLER", "sequence (P00742 235-488)": "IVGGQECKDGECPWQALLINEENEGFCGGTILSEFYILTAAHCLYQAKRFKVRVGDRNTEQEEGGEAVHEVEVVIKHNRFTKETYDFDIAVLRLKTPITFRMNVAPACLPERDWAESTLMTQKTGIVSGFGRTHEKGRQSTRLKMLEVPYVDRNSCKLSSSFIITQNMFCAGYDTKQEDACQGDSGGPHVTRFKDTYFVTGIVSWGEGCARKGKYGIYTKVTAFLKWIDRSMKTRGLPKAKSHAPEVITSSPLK", "assay": "Selectivity: inhibition of factor Xa", "conditions": "deduced from pre-assays with only three inhibitor concentrations; read-out: fXa K i", "procedure": "as §1, §2"}, "[7]": {"conditions": "K i (nM), inhibition of plasmin, series two, substituted Bpa in P1', and acyclic analogues, steady-state velocities, equation 1"}, "[8]": {"conditions": "K i (μM), inhibition of plasmin, series one, 4-aminophenylalanine in P1', steady-state velocities, equation 1"}, "[9]": {"conditions": "Plasmin K i, Table 3 selectivity"}},
  "note": "Where two headings read alike, the source gives them in different places.",
  "data": [
    {"smiles": "Cc1ccc2cc1NC(=O)CCCN1CCN(CC1)C(=O)Cc1ccc(cc1)NC(=O)[C@@H](NC(=O)[C@H]1CC[C@H](CN)CC1)Cc1ccc-2cc1", "note": "[inhibitor 36]", "values": [
      {"measurement": "Ki", "setting": "[1]; [7]", "result": "112 ± 6", "unit": "nM"}
    ]},
    {"smiles": "NC[C@H]1CC[C@H](C(=O)N[C@H]2Cc3ccc(cc3)NC(=O)CCCCCNC(=O)Cc3ccc(cc3)NC2=O)CC1", "note": "[inhibitor 6]", "values": [
      {"measurement": "Ki", "setting": "[1]; [8]", "result": "1380 ± 150", "unit": "nM"}
    ]},
    {"smiles": "Cc1ccc2cc1NC(=O)C(Cc1ccccc1)NC(=O)CCCNC(=O)Cc1ccc(cc1)NC(=O)C(NC(=O)C1CCC(CN)CC1)Cc1ccc-2cc1", "note": "(stereo not shown) [inhibitor 30]", "values": [
      {"measurement": "Ki", "setting": "[1]; [7]", "result": "2.08 ± 0.05", "unit": "nM"},
      {"measurement": "Ki", "setting": "[1]; [9]", "result": 2.08, "unit": "nM"},
      {"measurement": "PK selectivity index K i(protease)/Ki(plasmin)", "setting": "[2]", "result": 30},
      {"measurement": "Ki", "setting": "[2]", "result": "60 ± 12", "unit": "nM"},
      {"measurement": "fXIa selectivity index K i(protease)/Ki(plasmin)", "setting": "[3]", "result": 23},
      {"measurement": "Ki", "setting": "[3]", "result": "47 ± 2", "unit": "nM"},
      {"measurement": "Ki", "setting": "[4]", "result": "> 30000", "unit": "nM"},
      {"measurement": "Ki", "setting": "[5]", "result": "> 5000", "unit": "nM"},
      {"measurement": "Ki", "setting": "[6]", "result": "> 80000", "unit": "nM"}
    ]},
    {"smiles": "Cc1ccc2cc1NC(=O)CNC(=O)CCCNC(=O)Cc1cccc(c1)NC(=O)[C@@H](NC(=O)[C@H]1CC[C@H](CN)CC1)Cc1ccc-2cc1", "note": "[inhibitor 40]", "values": [
      {"measurement": "Ki", "setting": "[1]; [7]", "result": "9.47 ± 0.75", "unit": "nM"},
      {"measurement": "Ki", "setting": "[1]; [9]", "result": 9.47, "unit": "nM"},
      {"measurement": "PK selectivity index K i(protease)/Ki(plasmin)", "setting": "[2]", "result": 14},
      {"measurement": "Ki", "setting": "[2]", "result": "120 ± 10", "unit": "nM"},
      {"measurement": "fXIa selectivity index K i(protease)/Ki(plasmin)", "setting": "[3]", "result": 13},
      {"measurement": "Ki", "setting": "[3]", "result": "110 ± 10", "unit": "nM"},
      {"measurement": "Ki", "setting": "[4]", "result": "> 80000", "unit": "nM"},
      {"measurement": "Ki", "setting": "[5]", "result": "> 40000", "unit": "nM"},
      {"measurement": "Ki", "setting": "[6]", "result": "> 9000", "unit": "nM"}
    ]},
    {"smiles": "Cc1ccc2cc1NC(=O)CNC(=O)CCNC(=O)Cc1ccc(cc1)NC(=O)[C@@H](NC(=O)[C@H]1CC[C@H](CN)CC1)Cc1ccc-2cc1", "note": "[inhibitor 25]", "values": [
      {"measurement": "Ki", "setting": "[1]; [7]", "result": "33.8 ± 1.4", "unit": "nM"},
      {"measurement": "fold weaker plasmin inhibition than inhibitor 28", "setting": "[1]", "result": "at least 20 fold"}
    ]},
    {"smiles": "Cc1ccc(-c2ccc(C[C@H](NC(=O)[C@H]3CC[C@H](CN)CC3)C(=O)Nc3ccc(CC(=O)NCCCC(=O)NCC(N)=O)cc3)cc2)cc1N", "note": "[inhibitor 47]", "values": [
      {"measurement": "Ki", "setting": "[1]; [7]", "result": "65.1 ± 1.7", "unit": "nM"}
    ]},
    {"smiles": "Cc1ccc2cc1NC(=O)Cc1ccc(cc1)NC(=O)Cc1ccc(cc1)NC(=O)[C@@H](NC(=O)[C@H]1CC[C@H](CN)CC1)Cc1ccc-2cc1", "note": "[inhibitor 24]", "values": [
      {"measurement": "fold enhanced plasmin potency compared with compound 22", "setting": "[1]", "result": 4, "unit": "fold"},
      {"measurement": "Ki", "setting": "[1]; [7]", "result": "10.5 ± 1.4", "unit": "nM"}
    ]},
    {"smiles": "Cc1ccc2cc1NC(=O)CNC(=O)CCCNC(=O)c1ccc3cc(ccc3c1)NC(=O)[C@@H](NC(=O)[C@H]1CC[C@H](CN)CC1)Cc1ccc-2cc1", "note": "[inhibitor 44]", "values": [
      {"measurement": "Ki", "setting": "[1]; read-out: K i (nM), inhibition of plasmin, series two, substituted Bpa in P1', and acyclic analogues, steady-state velocities, equation 1", "result": "10.3 ± 0.2", "unit": "nM"}
    ]},
    {"smiles": "Cc1ccc2cc1NC(=O)CNC(=O)CCCCNC(=O)Cc1ccc(cc1)NC(=O)[C@@H](NC(=O)[C@H]1CC[C@H](CN)CC1)Cc1ccc-2cc1", "note": "[inhibitor 29]", "values": [
      {"measurement": "Ki", "setting": "[1]; [7]", "result": "62.6 ± 2.3", "unit": "nM"}
    ]},
    {"smiles": "CC(C)C[C@@H]1NC(=O)CCNC(=O)Cc2ccc(cc2)NC(=O)[C@@H](NC(=O)[C@H]2CC[C@H](CN)CC2)Cc2ccc(cc2)NC1=O", "note": "[inhibitor 10]", "values": [
      {"measurement": "Ki", "setting": "[1]; [8]", "result": "3330 ± 410", "unit": "nM"}
    ]},
    {"smiles": "Cc1ccc2cc1NC(=O)CNC(=O)CCCCNC(=O)Cc1cccc(c1)NC(=O)[C@@H](NC(=O)[C@H]1CC[C@H](CN)CC1)Cc1ccc-2cc1", "note": "[inhibitor 39]", "values": [
      {"measurement": "Ki", "setting": "[1]; [7]", "result": "26.9 ± 0.5", "unit": "nM"}
    ]},
    {"smiles": "Cc1ccc2cc1NC(=O)CCCNC(=O)CNC(=O)Cc1ccc(cc1)NC(=O)[C@@H](NC(=O)[C@H]1CC[C@H](CN)CC1)Cc1ccc-2cc1", "note": "[inhibitor 27]", "values": [
      {"measurement": "Ki", "setting": "[1]; [7]", "result": "17 ± 0.6", "unit": "nM"},
      {"measurement": "fold weaker plasmin inhibition than inhibitor 28", "setting": "[1]", "result": "at least 20 fold"}
    ]},
    {"smiles": "NC[C@H]1CC[C@H](C(=O)N[C@H]2Cc3ccc(cc3)-c3ccc(C(=O)Nc4ccccc4)c(c3)NC(=O)CNC(=O)CCCNC(=O)Cc3ccc(cc3)NC2=O)CC1", "note": "[inhibitor 32]", "values": [
      {"measurement": "Ki", "setting": "[1]; [7]", "result": "1.46 ± 0.07", "unit": "nM"},
      {"measurement": "Ki", "setting": "[1]; [9]", "result": 1.46, "unit": "nM"},
      {"measurement": "PK selectivity index K i(protease)/Ki(plasmin)", "setting": "[2]", "result": 11},
      {"measurement": "Ki", "setting": "[2]", "result": "15 ± 1", "unit": "nM"},
      {"measurement": "fXIa selectivity index K i(protease)/Ki(plasmin)", "setting": "[3]", "result": 4},
      {"measurement": "Ki", "setting": "[3]", "result": "5.3 ± 1.4", "unit": "nM"},
      {"measurement": "Ki", "setting": "[4]", "result": "> 25000", "unit": "nM"},
      {"measurement": "Ki", "setting": "[5]", "result": "> 20000", "unit": "nM"},
      {"measurement": "Ki", "setting": "[6]", "result": "> 5000", "unit": "nM"}
    ]},
    {"smiles": "Cc1ccc2cc1NC(=O)C1CCC(CC1)CNC(=O)Cc1ccc(cc1)NC(=O)C(NC(=O)C1CCC(CN)CC1)Cc1ccc-2cc1", "note": "(stereo not shown) [inhibitor 23]", "values": [
      {"measurement": "Ki", "setting": "[1]; [7]", "result": "109 ± 4", "unit": "nM"}
    ]},
    {"smiles": "CC(C)C[C@H]1NC(=O)CCNC(=O)Cc2ccc(cc2)NC(=O)[C@@H](NC(=O)[C@H]2CC[C@H](CN)CC2)Cc2ccc(cc2)NC1=O", "note": "[inhibitor 11]", "values": [
      {"measurement": "Ki", "setting": "[1]; [8]", "result": "3850 ± 280", "unit": "nM"}
    ]},
    {"smiles": "NC[C@H]1CC[C@H](C(=O)N[C@H]2Cc3ccc(cc3)NC(=O)CCNC(=O)CNC(=O)Cc3ccc(cc3)NC2=O)CC1", "note": "[inhibitor 8]", "values": [
      {"measurement": "Ki", "setting": "[1]; [8]", "result": "5530 ± 420", "unit": "nM"}
    ]}
  ]
}
